Assay: Calcein dye leakage assay
Type: biochemical
Conditions: pure DTT 30 mM without CPNT
Protocol: This was tested by studying the interaction of our CPNT with synthetic liposomes. A mixture of phosphatidylethanolamine and phosphatidylglycerol was used to simulate the cytosolic membrane of E. coli.[35] Vesicles were loaded with self-quenching concentrations of a fluorescent dye (calcein). This allows to detect disruption of the bilayer, as dye release from the liposomes and the resulting dilution leads to an increase in fluorescence (Scheme S4 ^†).
The fit (Figure S25) was performed with R, Rg, N agg, l and N as adjustable parameter.
Table S2. Fitting parameters for 24 using a form factor of a micelle with a spherical core […]
Rg, corona b 16.6 Å parameters
Vcore (single unit) c 300 Å3 […]
Background subtracted 5 × 10 -2 cm-1 a The radius of the core was calculated from the volume of the whole core given by the volume of the core of a single unit multiplied with the number of aggregation (N agg); b Radius of gyration (R g) of a single chain in the corona; c The Volume of a single cyclic peptide in the core or polymer corona (PEtOx) was estimated from the Mn, divided by the Avogadro constant and assuming a density of 1 g/cm 3, d The scattering lengths density (SLD) of the materials was calculated using the calculator given in SASfit; […]
Formation of vesicles. […]

O[C@@H](CS)[C@@H](O)CS (racemic) [DTT, 1,4-dithiothreitol]
Effect of DTT alone on fluorescence intensity (calcein release): no effect on the fluorescence intensity

Source: PMC6544120, “Stimuli-responsive membrane activity of cyclic-peptide–polymer conjugates” (Chemical Science, 2019)
